Results from US20220088017A1, “COMPOSITIONS AND METHODS FOR TREATING VIRAL INFECTIONS” (priority 2020, published 2022).

System: coronavirus (COVID-19)
Experiment: Observational case: older coronavirus contact with impending right heart failure treated with statin
Type: in vivo
Conditions: person
Description: An older person developed signs and symptoms of vascular inflammation and right heart failure. This included occasional headaches, flashes in vision, general fatigue, irritability, muscle pains, epigastric pain, general abdominal distention, inability to eat and circulatory congestion, salty or blood taste in sputum. […] The impending right heart failure was thought to be secondary to myocarditis, circulatory congestion due to poor blood flow as a result of vascular inflammation and sticky walls of blood vessels. The contact was within 6 hours having intermittent chest pains, sweating, and dizziness. Cardiac arrest was thought to be a possible poor outcome leading to mortality. The medical team discussed interventions necessary with statins, with the intention of reducing blood sticking to blood vessels. […] The patient commenced treatment immediately with good results in 3 days' time. The abdominal swelling which was A sign of right heart failure subsided, abdominal pain reduced and the patient was able to eat with circulatory congestion eased.

[1] = 20 mg daily, with OMEGA 3 based vitamin oil

SMILES: CC(C)c1nc(N(C)S(C)(=O)=O)nc(-c2ccc(F)cc2)c1/C=C/[C@@H](O)C[C@@H](O)CC(=O)O [rosuvastatin]
- right heart failure outcome (coronavirus contact, 20 mg daily for two weeks, concomitantly with OMEGA 3 based vitamin oil daily): prevented this patient from going into right heart failure
- circulation (coronavirus contact, 20 mg daily for two weeks, with OMEGA 3 based vitamin oil): restored circulation
- abdominal swelling (sign of right heart failure) [1]: subsided
- time to good results after start of treatment [1]: 3 days
